Test results as given in patent US20250241916A1, “TYROSINE KINASE INHIBITORS” (Nuvectis Pharma, Inc., priority 2022, published 2025).

Legend:
[1] = biological target: T1, full-length human BTK[C481S] (GST-BTK[C481S]) (Homo sapiens, UniProt Q06187, C481S); assay: Off-chip Mobility Shift Assay (MSA), tyrosine kinase inhibition, BTK[C481S]; assay type: biochemical; conditions: for inhibition at 0.5 µM: 0.5 μM compound
T1 construct: made in house
Description: (§1) Compound A was dissolved in dimethylsulfoxide (DMSO), and further diluted with assay buffer to a final concentration of 0.5 μmol/L. Reference compounds for assay control were prepared similarly. For BTK inhibition studies, full-length human BTK [2-659 (end) amino acids of accession number NP_000052] was expressed as N-terminal GST-fusion protein (103 kDa) using baculovirus expressionsystem. GST-BTK was purified by using glutathione sepharose chromatography. For BTK[C481S] inhibition studies, full-length human BTK [2-659 (end) amino acids and C481S of accession number NP_000052] was expressed as N-terminal GST-fusion protein (103 kDa) using baculovirusexpression system. GST-BTK[C481S] was purified by using glutathione sepharosechromatography.
(§2) A 4× Substrate/ATP/Metal solution was prepared with buffer (20 mmol/L HEPES, 0.01% Triton X-100, 5 mmol/L DTT, pH 7.5), and a 2× kinase solution was also prepared with buffer (20 mmol/L HEPES, 0.01% Triton X-100, 1 mmol/L DTT, pH 7.5). 5 μL of 4× compound solution, 5 μL of 4× Substrate/ATP/Metal solution, and 10 μL of 2× kinase solution were mixed and incubated in a well of polypropylene 384 well microplate for 1 hour at room temperature. 70 μL of Termination Buffer (QuickScout Screening Assist MSA) was added to the well. The reaction mixture was applied to LabChip™ system, and the product and substrate peptide peaks were separated and quantitated. The kinase reaction was evaluated by the product ratio calculated from peak heights of product (P) and substrate (S) peptides (P/(P+S)).
(§3) The readout value of reaction control (complete reaction mixture) was set as a 0% inhibition, and the readout value of background (Enzyme(−)) was set as a 100% inhibition, then the percent inhibition of each test solution was calculated (Table 2).

[2] = biological target: T2, full-length human BTK (GST-BTK) (Homo sapiens, UniProt Q06187); assay: Off-chip Mobility Shift Assay (MSA), tyrosine kinase inhibition, BTK; assay type: biochemical; conditions: for inhibition at 0.5 µM: 0.5 μM compound
T2 construct: made in house
T2 sequence (Q06187 2-659): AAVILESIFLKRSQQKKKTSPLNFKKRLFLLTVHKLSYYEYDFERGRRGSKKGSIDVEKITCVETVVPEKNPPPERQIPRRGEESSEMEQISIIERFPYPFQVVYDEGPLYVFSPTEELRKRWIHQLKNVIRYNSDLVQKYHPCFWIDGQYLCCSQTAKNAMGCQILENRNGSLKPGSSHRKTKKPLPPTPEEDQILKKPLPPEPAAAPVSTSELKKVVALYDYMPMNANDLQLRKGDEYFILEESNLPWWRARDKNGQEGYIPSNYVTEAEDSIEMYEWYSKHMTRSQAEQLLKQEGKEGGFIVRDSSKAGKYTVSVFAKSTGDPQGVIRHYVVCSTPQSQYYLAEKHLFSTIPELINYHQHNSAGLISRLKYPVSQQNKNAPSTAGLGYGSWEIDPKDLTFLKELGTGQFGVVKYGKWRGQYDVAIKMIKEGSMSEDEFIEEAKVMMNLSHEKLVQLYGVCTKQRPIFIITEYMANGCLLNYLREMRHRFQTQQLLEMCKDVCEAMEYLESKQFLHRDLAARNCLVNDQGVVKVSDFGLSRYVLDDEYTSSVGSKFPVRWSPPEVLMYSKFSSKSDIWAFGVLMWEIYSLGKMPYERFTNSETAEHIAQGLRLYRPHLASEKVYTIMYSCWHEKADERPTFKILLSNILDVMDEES
Description: as §1, §2, §3

[3] = test system: KYSE70 (esophageal squamous cell carcinoma) xenograft; assay: KYSE70 mouse xenograft model, antitumor efficacy; conditions: for Avg. Baseline Tumor Volume: 40 mg/kg
Description: (§4) Prior to the in-life phase of the study, the animals were weighed and examined for signs of physical disorder. […] Tumor reads were collected every 2 days up to 28 days, starting treatment at 100 mm^3 tumor volume and ending at 2000 mm^3 tumor volume. A t-test was applied to determine the significance of differences in tumor volumes.
(§5) Dose materials were prepared weekly in aliquots and stored frozen at −20° C. until dosing. For enrollment of mice into study, subcutaneous tumor volumes were monitored daily until reaching a minimum palpable tumor volume (˜100 mm3 by caliper) in the required number of mice. […] Following randomization and study cohort assignment, each dose cohort was treated according to dosage and schedule. Mice were euthanized when study end points were reached.
(§6) Tumor volume measurements were performed every 2 days (up to 3 times per week) using a calibrated caliper. Tumor volumes were determined using the formula length (mm)×width (mm)×height (mm)×0.50.
(§7) A tumor volume humane endpoint was reached when a 20% loss in body weight (excluding tumor weight) was observed over a week, or a 15% loss in body weight over 2 to 3 day period, or if a body condition score less than 2 (Body Condition Scoring for scoring guide), or the tumor weight exceeded 10% of the non-tumor bearing body weight (tumor weight was calculated based on tumor height×length×width×0.50×density of 1 g/cm^3) or when the tumor exceeded 2000 mm^3 in size. Body weight measurements were performed every 2 days (up to 3 times per week) during the 28-day treatment period to coincide with tumor volume measurement schedule. A humane endpoint was reached when body weight loss exceeded 20%.
(§8) The abbreviation RTV28 (relative tumor volume, day 28)=[avg. tumor volume D28]/[avg. tumor volume at baseline]. The abbreviation TGI % (percent tumor growth inhibition)=(1−[RTV28 of the treated group]/[RTV28 vehicle])×100.

[4] = test system: pan cancer squamous lines; assay: Sensitivity of cancer cell line panel (102 cell lines) to compound; assay type: cell-based; conditions: FIG. 1, p<0.05
Excerpt: Examples of squamous cell carcinomas contemplated herein may include, but are not limited to, cutaneous squamous cell carcinoma, esophageal squamous cell carcinoma, head and neck squamous cell carcinoma, squamous cell carcinoma of the vulva, and lung squamous cell carcinoma.
A shift to the left represents increased sensitivity. Size of circles represents number of cell lines with alteration (minimum of cell lines per alteration).

[5] = test system: Cal27 (tongue squamous cell carcinoma) xenograft; assay: Cal27 mouse xenograft model, antitumor efficacy
Description: as §4, §5, §6, §7, §8

[6] = 40 mg/kg oral once daily, 28 days, p≤0.001 vs vehicle on Day 27
[7] = (1-RTV28 treated/RTV28 vehicle)x100, 40 mg/kg oral once daily
[8] = Day 27, 40 mg/kg oral once daily
[9] = Day 28, 40 mg/kg oral once daily
[10] = avg. tumor volume D28 / baseline, 40 mg/kg oral once daily

T1 sequence (Q06187 2-659 C481S): as the sequence (Q06187 2-659) above, with C480S counted along it

`CNC1CCN(CCn2nc(-c3ccc(NC(=O)OC(C)(C)C)c(OC)c3)c3c(N)ncnc32)CC1` [Compound B, tert-butyl (4-(4-amino-1-(2-(4-(methylamino)piperidin-1-yl)ethyl)-1H-pyrazolo[3,4-d]pyrimidin-3-yl)-2-methoxyphenyl) carbamate] showed an IC50 [1] of 16.3 nM, an inhibition at 0.5 µM [1] of 97.5% and an IC50 [2] of 12.5 nM. For the same compound, the inhibition at 0.5 µM [2] was 95.6%.
With `COc1cc(-c2nn(CCN3CCC(N(C)C)CC3)c3ncnc(N)c23)ccc1NC(=O)OC(C)(C)C` [Compound A, tert-Butyl (4-(4-amino-1-(2-(4-(dimethylamino)piperidin-1-yl)ethyl)-1H-pyrazolo[3,4-d]pyrimidin-3-yl)-2-methoxyphenyl)carbamate] the “tumor growth inhibition” value [3, 6] was “substantial tumor growth inhibition”, the “Tumor Growth Inhibition (TGI)” value [3, 7] was 95% and the “average tumor volume on Day 27” value [3, 8] was 31.5 mm^3. The “mean percent increase from baseline in body weight” value [3, 8] was 2.0%, the “decrease in tumor volume from baseline” value ([3]; Day 27 vs baseline, 40 mg/kg oral once daily) was 71% and the “Avg. Day 28. Tumor Volume” value [3, 9] was 31.5 mm^3. The “Relative Tumor Volume (RTV28)” value [3, 10] was 0.29, the “Avg. Baseline Tumor Volume” value ([3]; 40 mg/kg oral once daily) was 109.8 mm^3 and the “Avg. Baseline Tumor Volume” value ([3]; 40 mg/kg oral once daily, listed as Cmpd A) was 106.0 mm^3. The IC50 [1] was 16.3 nM, the inhibition at 0.5 µM [1] was 95.1% and the IC50 [2] was 12.5 nM. For the same compound, the inhibition at 0.5 µM [2] was 96.9%, the “sensitivity of pan cancer squamous carcinomas (10logIC50)” value [4] was “high sensitivity” and the “tumor growth inhibition” value [5, 6] was “substantial TGI”. For the same compound, the “Tumor Growth Inhibition (TGI)” value [5, 7] was 86%, the “average tumor volume on Day 27” value [5, 8] was 91.4 mm3 and the “mean percent increase from baseline in body weight” value [5, 8] was 2.1%. For the same compound, the “Avg. Day 28. Tumor Volume” value [5, 9] was 91.4 mm^3, the “Relative Tumor Volume (RTV28)” value [5, 10] was 0.78 and the “Avg. Baseline Tumor Volume” value ([5]; baseline, 40 mg/kg oral once daily) was 116.2 mm^3.
